T1: Solute carrier family 22 member 1 (Rattus norvegicus, UniProt Q63089)
T1 sequence (Q63089 whole entry): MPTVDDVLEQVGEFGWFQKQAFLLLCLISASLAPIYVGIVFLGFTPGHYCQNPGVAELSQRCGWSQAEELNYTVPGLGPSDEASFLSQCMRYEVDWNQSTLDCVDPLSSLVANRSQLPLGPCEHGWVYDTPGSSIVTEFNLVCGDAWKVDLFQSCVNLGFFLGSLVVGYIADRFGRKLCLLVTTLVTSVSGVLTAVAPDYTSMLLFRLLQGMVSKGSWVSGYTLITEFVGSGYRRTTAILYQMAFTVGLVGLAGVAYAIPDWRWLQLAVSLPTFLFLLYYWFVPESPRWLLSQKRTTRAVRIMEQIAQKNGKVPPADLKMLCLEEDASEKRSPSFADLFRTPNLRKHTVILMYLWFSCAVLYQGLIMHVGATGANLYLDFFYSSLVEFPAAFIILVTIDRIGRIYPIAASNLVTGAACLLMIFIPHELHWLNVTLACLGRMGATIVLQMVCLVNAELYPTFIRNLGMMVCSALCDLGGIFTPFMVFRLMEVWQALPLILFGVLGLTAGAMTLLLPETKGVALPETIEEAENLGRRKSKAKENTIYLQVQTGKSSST

T2: Solute carrier family 22 member 2 (Rattus norvegicus, UniProt Q9R0W2)
T2 sequence (Q9R0W2 whole entry): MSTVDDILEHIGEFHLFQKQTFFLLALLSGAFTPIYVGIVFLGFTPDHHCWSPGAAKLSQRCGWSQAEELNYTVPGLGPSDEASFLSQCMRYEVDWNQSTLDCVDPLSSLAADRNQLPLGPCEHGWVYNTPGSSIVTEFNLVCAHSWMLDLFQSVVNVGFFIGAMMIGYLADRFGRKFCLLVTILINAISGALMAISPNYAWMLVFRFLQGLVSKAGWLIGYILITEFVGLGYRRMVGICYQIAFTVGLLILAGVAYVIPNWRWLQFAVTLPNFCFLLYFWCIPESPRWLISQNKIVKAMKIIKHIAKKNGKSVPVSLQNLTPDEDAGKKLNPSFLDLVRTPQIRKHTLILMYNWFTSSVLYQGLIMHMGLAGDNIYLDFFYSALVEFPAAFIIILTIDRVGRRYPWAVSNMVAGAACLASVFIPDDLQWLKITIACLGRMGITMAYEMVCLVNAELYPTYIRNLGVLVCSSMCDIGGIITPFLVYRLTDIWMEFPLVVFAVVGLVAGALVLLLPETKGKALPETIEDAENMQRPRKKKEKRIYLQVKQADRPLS

B1: Solute carrier family 22 member 1 (Rattus norvegicus) (protein)
chain: T1 sequence (Q63089 whole entry)

Legend:
[1] = target: T1, Solute carrier family 22 member 1; experiment: (§1) TP_TRANSPORTER: uptake in Xenopus laevis oocytes; assay type: functional, cell-based; details: oocyte
[2] = target: T2, Solute carrier family 22 member 2; experiment: as §1; assay type: functional, cell-based; details: oocyte
[3] = target: T1, Solute carrier family 22 member 1; experiment: TP_TRANSPORTER: inhibition of dTub uptake in Xenopus laevis oocytes
[4] = target: T1, Solute carrier family 22 member 1; experiment: TP_TRANSPORTER: inhibition of TEA uptake in Xenopus laevis oocytes; assay type: functional, cell-based, Oocyte
[5] = substrate: CC[N+](CC)(CC)CC; experiment: cells, lysate or membranes named

Molecule | Activity [1] | Activity [2] | further results
Cc1cn([C@H]2C[C@H](N=[N+]=[N-])[C@@H](CO)O2)c(=O)[nH]c1=O [ZIDOVUDINE] | substrate [+] | is not a substrate [-] | –
CC[N+](CC)(CC)CC [TETRYLAMMONIUM] | – | – | Ki [3]: 286 µM
Nc1ccn([C@@H]2O[C@H](CO)[C@@H](O)[C@@H]2O)c(=O)n1 [CYTARABINE] | substrate [+] | is not a substrate [-] | –
Nc1nc(Cl)nc2c1ncn2[C@H]1C[C@H](O)[C@@H](CO)O1 [CLADRIBINE] | substrate [+] | is not a substrate [-] | –
Nc1ncnc2c1ccn2[C@H]1C[C@H](O)[C@@H](CO)O1 [2'-Deoxytubercidin] | – | – | Ki [4]: 19 µM
B1 | – | – | Km [5]: 251 µM
